This passage reports inhibition results from US20240287052A1, “NOVEL OXAZOLE DERIVATIVE AND PHARMACEUTICAL COMPOSITION FOR PREVENTING OR TREATING ALLERGIC DISEASES COMPRISING THE SAME” (AZCURIS CO., LTD., priority 2021, published 2024).

The target in this experiment is T1, IL33 and ST2 binding (Homo sapiens, UniProt O95760).
T1 sequence (O95760 112-270 limits assumed): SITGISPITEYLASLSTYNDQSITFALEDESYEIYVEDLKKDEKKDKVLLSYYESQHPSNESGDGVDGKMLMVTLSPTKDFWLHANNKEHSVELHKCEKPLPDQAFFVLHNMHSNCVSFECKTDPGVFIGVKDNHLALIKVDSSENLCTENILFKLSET

Where two headings read alike, the source gives them in different places.
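Note: plate ELISA with coated Flag-tagged human IL-33 and His-tagged human ST2, bound ST2 detected by anti-His HRP and TMB absorbance at 450 nm, 2 h compound incubation.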

Broadly, the inhibition is the relative decrease from the control value, in per cent. Take `CN1CCN(CCNC(=O)c2nc(-c3cccc(F)c3)oc2-c2ccccc2)CC1` [Compound 221, 2-(3-Fluorophenyl)N-(2-(4-methylpiperazin-1-yl)ethyl)-5-phenyloxazole-4-carboxamide]: the inhibition runs as follows: (30 µM) -34%; (100 µM) -21%.
On the same counts, the results for `CN(C)CCNC(=O)c1nc(-c2cccc(F)c2)oc1-c1ccccc1[N+](=O)[O-]` [Compound 222, N-(2-(Dimethylamino)ethyl)-2-(3-fluorophenyl)-5-(2-nitrophenyl)oxazole-4-carboxamide] are -28% and -16%.
`CN1CCN(CCNC(=O)c2nc(-c3cccc(F)c3)oc2-c2ccccc2[N+](=O)[O-])CC1` [Compound 223, 2-(3-Fluorophenyl)-N-(2-(4-methylpiperazin-1-yl)ethyl)-5-(2-nitrophenyl)oxazole-4-carboxamide]: the inhibition is, setting by setting: (30 µM) 29%; (100 µM) 38%.
On the same counts, the results for `CN(C)CCNC(=O)c1nc(-c2ccc(F)cc2)oc1-c1ccccc1` [Compound 224, N-(2-(Dimethylamino)ethyl)-2-(4-fluorophenyl)-5-phenyloxazole-4-carboxamide] are -13% and -18%.
For `CN1CCN(CCNC(=O)c2nc(-c3ccc(F)cc3)oc2-c2ccccc2)CC1` [Compound 225, 2-(4-Fluorophenyl)-N-(2-(4-methylpiperazin-1-yl)ethyl)-5-phenyloxazole-4-carboxamide], in that order: -6% and 7%.
On the same counts, the results for `CN(C)CCNC(=O)c1nc(-c2ccc(F)cc2)oc1-c1ccccc1[N+](=O)[O-]` [Compound 226, N-(2-(Dimethylamino)ethyl)-2-(4-fluorophenyl)-5-(2-nitrophenyl)oxazole-4-carboxamide] are -25% and -8%.
With `CN1CCN(CCNC(=O)c2nc(-c3ccc(F)cc3)oc2-c2ccccc2[N+](=O)[O-])CC1` [Compound 227, 2-(4-Fluorophenyl)-N-(2-(4-methylpiperazin-1-yl)ethyl)-5-(2-nitrophenyl)oxazole-4-carboxamide], the inhibition runs as follows: (30 µM) -22%; (100 µM) -28%.
Regarding `CN(C)CCN1CCN(C(=O)c2nc(-c3ccc(F)cc3)oc2-c2ccccc2[N+](=O)[O-])CC1` [Compound 228, (4-(2-(Dimethylamino)ethyl)piperazin-1-yl)(2-(4-fluorophenyl)-5-(2-nitrophenyl)oxazol-4-yl)methanone], the inhibition came out at 24% (30 µM) and 43% (100 µM).
For `CN(C)CCNC(=O)c1nc(-c2ccc(F)cc2)oc1-c1ccc([N+](=O)[O-])cc1` [Compound 229, N-(2-(Dimethylamino)ethyl)-2-(4-fluorophenyl)-5-(4-nitrophenyl)oxazole-4-carboxamide], in that order: -54% and -98%.
For the compound `CN1CCN(CCNC(=O)c2nc(-c3ccc(F)cc3)oc2-c2ccc([N+](=O)[O-])cc2)CC1` [Compound 230, 2-(4-Fluorophenyl)-N-(2-(4-methylpiperazin-1-yl)ethyl)-5-(4-nitrophenyl)oxazole-4-carboxamide], the inhibition (30 µM) came out at 15% and the inhibition (100 µM) is 0%.
On the same counts, the results for `CN1CCN(CCNC(=O)c2nc(-c3ccc(F)c(F)c3)oc2-c2ccccc2)CC1` [Compound 232, 2-(3,4-Difluorophenyl)-N-(2-(4-methylpiperazin-1-yl)ethyl)-5-phenyloxazole-4-carboxamide] are -9% and 3%.
On the same counts, the results for `CN(C)CCNC(=O)c1nc(-c2ccc(F)c(F)c2)oc1-c1ccccc1[N+](=O)[O-]` [Compound 233, 2-(3,4-Difluorophenyl)-N-(2-(dimethylamino)ethyl)-5-(2-nitrophenyl)oxazole-4-carboxamide] are -27% and -27%.
Regarding `CN1CCN(CCNC(=O)c2nc(-c3ccc(F)c(F)c3)oc2-c2ccccc2[N+](=O)[O-])CC1` [Compound 234, 2-(3,4-Difluorophenyl)-N-(2-(4-methylpiperazin-1-yl)ethyl)-5-(2-nitrophenyl)oxazole-4-carboxamide], the inhibition was 13% (30 µM) and 19% (100 µM).
On the same counts, the results for `CN(C)CCNC(=O)c1nc(-c2cc(F)cc(F)c2)oc1-c1ccccc1` [Compound 235, 2-(3,5-Difluorophenyl)-N-(2-(dimethylamino)ethyl)-5-phenyloxazole-4-carboxamide] are 3% and 36%.
For `CN1CCN(CCNC(=O)c2nc(-c3cc(F)cc(F)c3)oc2-c2ccccc2)CC1` [Compound 236, 2-(3,5-Difluorophenyl)-N-(2-(4-methylpiperazin-1-yl)ethyl)-5-phenyloxazole-4-carboxamide], in that order: -8% and -7%.
For `CN(C)CCNC(=O)c1nc(-c2cc(F)cc(F)c2)oc1-c1ccccc1[N+](=O)[O-]` [Compound 237, 2-(3,5-Difluorophenyl)-N-(2-(dimethylamino)ethyl)-5-(2-nitrophenyl)oxazole-4-carboxamide], in that order: -34% and -16%.
As for `CN1CCN(CCNC(=O)c2nc(-c3cccc(Cl)c3)oc2-c2ccccc2)CC1` [Compound 241, 2-(3-Chlorophenyl)-N-(2-(4-methylpiperazin-1-yl)ethyl)-5-phenyloxazole-4-carboxamide], the inhibition runs as follows: (30 µM) 31%; (100 µM) 38%.
For `CN(C)CCNC(=O)c1nc(-c2cccc(Cl)c2)oc1-c1ccccc1[N+](=O)[O-]` [Compound 242, 2-(3-Chlorophenyl)-N-(2-(dimethylamino)ethyl)-5-(2-nitrophenyl)oxazole-4-carboxamide], in that order: -14% and -12%.
On the same counts, the results for `CN1CCN(CCNC(=O)c2nc(-c3cccc(Cl)c3)oc2-c2ccccc2[N+](=O)[O-])CC1` [Compound 243, 2-(3-chlorophenyl)-N-(2-(4-methylpiperazin-1-yl)ethyl)-5-(2-nitrophenyl)oxazole-4-carboxamide] are 14% and -6%.
Take `CN(C)CCNC(=O)c1nc(-c2ccc(Cl)cc2)oc1-c1ccccc1` [Compound 244, 2-(4-Chlorophenyl)-N-(2-(dimethylamino)ethyl)-5-phenyloxazole-4-carboxamide]: the inhibition runs as follows: (30 µM) 0%; (100 µM) 38%.
As to `CN1CCN(CCNC(=O)c2nc(-c3ccc(Cl)cc3)oc2-c2ccccc2)CC1` [Compound 245, 2-(4-Chlorophenyl)-N-(2-(4-methylpiperazin-1-yl)ethyl)-5-phenyloxazole-4-carboxamide], the inhibition was 15% (30 µM) and 26% (100 µM).
On the same counts, the results for `CN1CCN(CCNC(=O)c2nc(-c3ccc(Cl)cc3)oc2-c2ccccc2[N+](=O)[O-])CC1` [Compound 247, 2-(4-Chlorophenyl)-N-(2-(4-methylpiperazin-1-yl)ethyl)-5-(2-nitrophenyl)oxazole-4-carboxamide] are 8% and 32%.
For `CN1CCN(CCNC(=O)c2nc(-c3ccc(C#N)cc3)oc2-c2ccccc2)CC1` [Compound 250, 2-(4-Cyanophenyl)-N-(2-(4-methylpiperazin-1-yl)ethyl)-5-phenyloxazole-4-carboxamide], in that order: 14% and 9%.
For `CN(C)CCNC(=O)c1nc(-c2ccc(C#N)cc2)oc1-c1ccccc1[N+](=O)[O-]` [Compound 251, 2-(4-Cyanophenyl)-N-(2-(dimethylamino)ethyl)-5-(2-nitrophenyl)oxazole-4-carboxamide], the inhibition (30 µM) was -6% and the inhibition (100 µM) is -21%.
For `CN1CCN(CCNC(=O)c2nc(-c3ccc(C#N)cc3)oc2-c2ccccc2[N+](=O)[O-])CC1` [Compound 252, 2-(4-Cyanophenyl)-N-(2-(4-methylpiperazin-1-yl)ethyl)-5-(2-nitrophenyl)oxazole-4-carboxamide], in that order: 28% and 19%.
Take `CN(C)CCNC(=O)c1nc(-c2ccc(-c3ccccc3)cc2)oc1-c1ccccc1` [Compound 253, 2-([1,1′-Biphenyl]-4-yl)-N-(2-(dimethylamino)ethyl)-5-phenyloxazole-4-carboxamide]: the inhibition was 11% (30 µM) and 60% (100 µM).
For `CN1CCN(CCNC(=O)c2nc(-c3ccc(-c4ccccc4)cc3)oc2-c2ccccc2)CC1` [Compound 254, 2-([1,1′-Biphenyl]-4-yl)-N-(2-(4-methylpiperazin-1-yl)ethyl)-5-phenyloxazole-4-carboxamide], in that order: -20% and 11%.
On the same counts, the results for `CN(C)CCNC(=O)c1nc(-c2ccc(-c3ccccc3)cc2)oc1-c1ccccc1[N+](=O)[O-]` [Compound 255, 2-([1,1′-Biphenyl]-4-yl)-N-(2-(dimethylamino)ethyl)-5-(2-nitrophenyl)oxazole-4-carboxamide] are -10% and 1%.
For `CN1CCN(CCNC(=O)c2nc(-c3ccc(-c4ccccc4)cc3)oc2-c2ccccc2[N+](=O)[O-])CC1` [Compound 256, 2-([1,1′-Biphenyl]-4-yl)-N-(2-(4-methylpiperazin-1-yl)ethyl)-5-(2-nitrophenyl)oxazole-4-carboxamide], in that order: 3% and 49%.
With `CN(C)CCNC(=O)c1nc(-c2ccc3ccccc3c2)oc1-c1ccccc1` [Compound 257, N-(2-(Dimethylamino)ethyl)-2-(naphthalen-2-yl)-5-phenyloxazole-4-carboxamide], the inhibition is, setting by setting: (30 µM) 6%; (100 µM) 1%.
For `CN1CCN(CCNC(=O)c2nc(-c3ccc4ccccc4c3)oc2-c2ccccc2)CC1` [Compound 258, N-(2-(4-Methylpiperazin-1-yl)ethyl)-2-(naphthalen-2-yl)-5-phenyloxazole-4-carboxamide], the inhibition by setting is: (30 µM) 35%; (100 µM) 49%.
